Literature values in PMC3280530, “Marine Compounds Selectively Induce Apoptosis in Female Reproductive Cancer Cells but Not in Primary-Derived Human Reproductive Granulosa Cells” (Marine Drugs, 2012).

Test system: caspase-3 and -7 in the Jurkat cell line
Set-up: method as in PMID 17088067
Settings: after 5 h; cited from earlier work

## O=C1Nc2c(cc(Br)c(Br)c2Br)C1=O [5,6,7-tribromoisatin]
  concentration activating caspase-3 and -7: 8 µM
